≈ marks a conversion by molar mass, not a printed value. Blank lines part the entries; values can stand above or below the molecule they belong to.
Columns and labels:
Format in all cases: functional
[1] = tested on: Staphylococcus aureus; test: Antibacterial activity against Staphylococcus aureus 11B117 by broth microdilution method
[2] = tested on: Staphylococcus aureus; test: Antibacterial activity against Staphylococcus aureus ATCC 29213 by broth microdilution method
[3] = tested on: Haemophilus influenzae; test: Antibacterial activity against Haemophilus influenzae 11Q373 by broth microdilution method
[4] = tested on: Haemophilus influenzae; test: Antibacterial activity against Haemophilus influenzae ATCC 49247 by broth microdilution method
[5] = tested on: Staphylococcus epidermidis; test: Antibacterial activity against Staphylococcus epidermidis 11X315 by broth microdilution method
[6] = tested on: Staphylococcus epidermidis; test: Antibacterial activity against Staphylococcus epidermidis 11C176 by broth microdilution method
[7] = tested on: Moraxella catarrhalis; test: Antibacterial activity against Moraxella catarrhalis by broth microdilution method
[8] = tested on: Streptococcus pneumoniae; test: Antibacterial activity against Streptococcus pneumoniae 11J011 by broth microdilution method
[9] = tested on: Streptococcus pneumoniae; test: Antibacterial activity against Streptococcus pneumoniae ATCC 49619 by broth microdilution method
[10] = tested on: Streptococcus pyogenes; test: Antibacterial activity against Streptococcus pyogenes R2
[11] = tested on: Streptococcus pneumoniae; test: Antibacterial activity against Streptococcus pneumoniae A22072
[12] = tested on: Staphylococcus aureus; test: Antibacterial activity against Staphylococcus aureus ATCC 25923
[13] = tested on: Streptococcus pneumoniae; test: Antibacterial activity against Streptococcus pneumoniae AB11
[14] = tested on: Staphylococcus aureus; test: Antibacterial activity against Staphylococcus aureus
[15] = tested on: Streptococcus pyogenes; test: Antibacterial activity against Streptococcus pyogenes S2
[16] = tested on: Streptococcus pneumoniae; test: Antibacterial activity against Streptococcus pneumoniae ATCC 49619
[17] = tested on: Streptococcus pneumoniae; test: Antibacterial activity against Streptococcus pneumoniae B1
[18] = tested on: Escherichia coli; test: Antibacterial activity against Escherichia coli DK pKK 3535
[19] = tested on: Escherichia coli; test: Antibacterial activity against Escherichia coli DK A2058G
[20] = tested on: Streptococcus pneumoniae; test: Antibacterial activity against Streptococcus pneumoniae 655 mefA
[21] = tested on: Streptococcus pneumoniae; test: Antibacterial activity against Streptococcus pneumoniae by broth microdilution method
[22] = tested on: Staphylococcus aureus; test: Antibacterial activity against methicillin susceptible and erythromycin resistant Staphylococcus aureus by broth microdilution method
[23] = tested on: Enterococcus faecalis; test: Antibacterial activity against Enterococcus faecalis by broth microdilution method
[24] = tested on: Staphylococcus epidermidis; test: Antibacterial activity against methicillin resistant Staphylococcus epidermidis by broth microdilution method
[25] = tested on: Staphylococcus haemolyticus; test: Antibacterial activity against Staphylococcus haemolyticus by broth microdilution method
[26] = tested on: Haemophilus influenzae; test: Antibacterial activity against Haemophilus influenzae by broth microdilution method
[27] = tested on: Staphylococcus aureus; test: Antibacterial activity against methicillin/erythromycin susceptible Staphylococcus aureus by broth microdilution method
[28] = tested on: Staphylococcus epidermidis; test: Antibacterial activity against methicillin susceptible Staphylococcus epidermidis by broth microdilution method
[29] = tested on: Staphylococcus aureus; test: Antibacterial activity against methicillin resistant Staphylococcus aureus by broth microdilution method
[30] = tested on: Haemophilus influenzae; test: Antibacterial activity against Haemophilus influenzae 49247
[31] = tested on: Staphylococcus aureus; test: Antibacterial activity against methicillin resistant Staphylococcus aureus 7662
[32] = tested on: Haemophilus influenzae; test: Antibacterial activity against Haemophilus influenzae 33929
[33] = tested on: Staphylococcus aureus; test: Antibacterial activity against methicillin resistant Staphylococcus aureus 33591

MIC50 [1]: > 64 µg/mL
MIC50 [2]: 0.25 µg/mL (≈ 0.282 µM)
MIC50 [3]: 2 µg/mL (≈ 2.25 µM)
MIC50 [4]: 2 µg/mL (≈ 2.25 µM)
MIC50 [5]: 0.25 µg/mL (≈ 0.282 µM)
MIC50 [6]: 0.25 µg/mL (≈ 0.282 µM)
MIC50 [7]: 0.25 µg/mL (≈ 0.282 µM)
MIC50 [8]: 2 µg/mL (≈ 2.25 µM)
MIC50 [9]: 0.031 µg/mL (≈ 0.0349 µM)
Structure (SMILES): CC[C@H]1OC(=O)[C@H](C)C(=O)[C@H](C)[C@@H](O[C@@H]2O[C@H](C)C[C@H](N(C)C)[C@H]2O)[C@](C)(OC)C[C@@H](C)C(=O)[C@H](C)[C@H]2N(CCCN(Cc3ccccc3)c3cnc4ccccc4c3)C(=O)O[C@]12C

MIC50 [1]: > 64 µg/mL
MIC50 [2]: 2 µg/mL (≈ 2.1 µM)
MIC50 [3]: 16 µg/mL (≈ 16.8 µM)
MIC50 [4]: 32 µg/mL (≈ 33.6 µM)
MIC50 [5]: 1 µg/mL (≈ 1.05 µM)
MIC50 [6]: 1 µg/mL (≈ 1.05 µM)
MIC50 [7]: 2 µg/mL (≈ 2.1 µM)
MIC50 [8]: 2 µg/mL (≈ 2.1 µM)
MIC50 [9]: 0.25 µg/mL (≈ 0.263 µM)
Structure (SMILES): CC[C@H]1OC(=O)[C@H](C)C(=O)[C@H](C)[C@@H](O[C@@H]2O[C@H](C)C[C@H](N(C)C)[C@H]2O)[C@](C)(OC)C[C@@H](C)C(=O)[C@H](C)[C@H]2N(CCCN(c3cnc4ccccc4c3)S(=O)(=O)c3ccc(C)cc3)C(=O)O[C@]12C

MIC [10]: 64 µg/mL (≈ 69.2 µM)
MIC [11]: 4 µg/mL (≈ 4.33 µM)
MIC [12]: 8 µg/mL (≈ 8.65 µM)
MIC [13]: 16 µg/mL (≈ 17.3 µM)
MIC [14]: 32 µg/mL (≈ 34.6 µM)
MIC [15]: 1 µg/mL (≈ 1.08 µM)
MIC [16]: 0.03 µg/mL (≈ 0.0324 µM)
MIC [17]: 16 µg/mL (≈ 17.3 µM)
Structure (SMILES): CC[C@H]1OC(=O)[C@H](C)[C@@H](O[C@H]2C[C@@](C)(OC)[C@@H](OC(=O)NCc3cccc(Cl)c3)[C@H](C)O2)[C@H](C)[C@@H](OC2O[C@H](C)C[C@H](N(C)C)[C@H]2O)[C@]2(C)C[C@@H](C)/C(=N\[C@H](C)[C@H]3OC(=O)O[C@@]31C)O2 (stereo partly drawn)

Structure (SMILES): CC[C@H]1OC(=O)[C@@](C)(F)C(=O)[C@H](C)[C@@H](O[C@@H]2O[C@H](C)C[C@H](N(C)C)[C@H]2O)[C@](C)(OC)C[C@@H](C)C(=O)[C@H](C)[C@H]2N(CCCCn3cc(-c4cccs4)nn3)C(=O)O[C@]12C
MIC [18]: 1 µg/mL (≈ 1.2 µM)
MIC [19]: 0.004 µg/mL (≈ 0.00478 µM)
MIC [20]: 0.5 µg/mL (≈ 0.598 µM)
MIC [16]: 1 µg/mL (≈ 1.2 µM)

Structure (SMILES): CC[C@H]1OC(=O)[C@H](C)C(=O)[C@H](C)[C@@H](O[C@@H]2O[C@H](C)C[C@H](N(C)C)[C@H]2O)[C@](C)(OC)C[C@@H](C)C(=O)[C@H](C)[C@H]2N(CCCOC(=O)Nc3cccc(C)c3)C(=O)O[C@]12C
MIC50 [21]: 0.062 to 0.125 µg/mL (≈ 0.0771 to 0.155 µM)
MIC50 [22]: 0.25 µg/mL (≈ 0.311 µM)
MIC50 [23]: > 256 µg/mL
MIC50 [24]: 1 to 128 µg/mL (≈ 1.24 to 159 µM)
MIC50 [25]: 1 to 2 µg/mL (≈ 1.24 to 2.49 µM)
MIC50 [26]: 4 to 8 µg/mL (≈ 4.98 to 9.95 µM)
MIC50 [27]: 0.125 µg/mL (≈ 0.155 µM)
MIC50 [28]: 0.031 µg/mL (≈ 0.0386 µM)
MIC50 [29]: 128 to 256 µg/mL (≈ 159 to 318 µM)

Structure (SMILES): CCC(=O)/N=C1\[C@H](C)C[C@@]2(C)OC/C(=N/OCc3csc(-c4cccc(N)n4)n3)CO[C@H]([C@H]1C)[C@](C)(O)[C@@H](CC)OC(=O)[C@@](C)(F)C(=O)[C@H](C)[C@H]2O[C@@H]1O[C@H](C)C[C@H](N(C)C)[C@H]1O
MIC [30]: 1 µg/mL (≈ 1.1 µM)
MIC [31]: 1 µg/mL (≈ 1.1 µM)
MIC [32]: 4 µg/mL (≈ 4.42 µM)
MIC [33]: 2 µg/mL (≈ 2.21 µM)

— ChEMBL document CHEMBL4334493, “14- and 15-membered lactone macrolides and their analogues and hybrids: structure, molecular mechanism of action and biological activity” (Eur J Med Chem, 2019)
